{"source": "patent US9090670B2", "about": "“Use of peptides for promoting wound healing” (priority 2008, dated 2015)", "key": {"[1]": {"test_system": "human buccal epithelial cell line TR146", "experiment": "In vitro scratch wound closure assay on an epithelial monolayer", "type": "cell-based", "procedure": "The human buccal epithelial cell line TR146 (Rupniak et al; J Natl Cancer Inst. 1985 October: 75(4):621-35) was kindly provided by Cancer Research UK. Cells were grown in Dulbecco's modified Eagle medium with 4.5 g/l glucose (Invitrogen), 10% FCS (HyClone) and 100 U/ml penicillin, […] streptomycin, and 250 ng/ml amphotericinB (Antibiotic antimyotic solution, Sigma,), at 37° C., 95% humidity and 5% CO2. Cells were maintained until near confluence and then briefly treated with 0.25% trypsin-EDTA 1× (Invitrogen) to detach them, counted in a hepacytometer and seeded into new flasks or multi-well plates at the required cell density of about 1.5×10^5 cells/well. Wound assays were performed as previously described ([…] et al., 1993, J Cell Sci. 106 (Pt 3):869-78). In brief, cells were grown in 12-well plates until confluence, and then were serum deprived for 24 hours in keratinocyte serum free medium (SFM (Invitrogen)). In each well a scratch was made in the cellular monolayer using a sterile tip. The wounded monolayer was washed with SFM to remove cellular debris, and the following conditions were applied: • (i) Whole saliva and salivary secretions applied in 30% (v/v) in SFM. As a negative control 30% (v/v) saliva buffer was used. • (ii) (ii) rhEGF (Invitrogen) as a positive control • (iii) rp-HPLC fractions containing salivary proteins; • (iv) synthetic peptides: the experiments with isolated proteins and synthetic peptides were performed in full SFM. The width of the wound area was determined microscopically immediately after wound creation and at approximately 16 hours after wounding. The relative closure was calculated by relating the closure to that of the negative control."}, "[2]": {"test_system": "human buccal epithelial cell line TR146", "experiment": "In vitro wound closure with inhibitors of EGFR, p38 MAPK and ERK1/2", "type": "cell-based", "procedure": "Wound assays were performed as previously described (Matthay et al., 1993, J Cell Sci. 106 (Pt 3):869-78). In brief, cells were grown in 12-well plates until confluence, and then were serum deprived for 24 hours in keratinocyte serum free medium (SFM (Invitrogen)). In each well a scratch was made in the cellular monolayer using a sterile tip. The wounded monolayer was washed with SFM to remove cellular debris, and the following conditions were applied: • (i) Whole saliva and salivary secretions applied in 30% (v/v) in SFM. As a negative control 30% (v/v) saliva buffer was used. • (ii) (ii) rhEGF (Invitrogen) as a positive control • (iii) rp-HPLC fractions containing salivary proteins; • (iv) synthetic peptides: the experiments with isolated proteins and synthetic peptides were performed in full SFM.\nFor inhibitor studies; directly after wounding cells were exposed to inhibitors of ERK1/2 (U0126, 5 μM, LC Laboratories), EGFR (AG1478, 1 μM, Calbiochem), and p38 MAPK (SB203580, 5 μM; LC Laboratories). Experiments were done in quadruplicate and analyzed using One-way ANOVA to determine significance with additional LSD post hoc test, P<0.05 was considered significant."}}, "note": "Where no end group is shown, it is not given here."}
{"molecule": "CC(C)C[C@H](NC(=O)[C@H](Cc1ccc(O)cc1)NC(=O)[C@H](CC(N)=O)NC(=O)[C@H](CO)NC(=O)[C@H](CCCNC(=N)N)NC(=O)[C@H](Cc1ccc(O)cc1)NC(=O)CNC(=O)[C@H](CCCNC(=N)N)NC(=O)[C@H](Cc1c[nH]cn1)NC(=O)[C@H](CO)NC(=O)[C@H](Cc1c[nH]cn1)NC(=O)[C@H](Cc1c[nH]cn1)NC(=O)[C@H](CCCCN)NC(=O)[C@H](CCC(=O)O)NC(=O)[C@H](Cc1c[nH]cn1)NC(=O)[C@H](Cc1ccccc1)NC(=O)[C@H](CCCCN)NC(=O)[C@H](CCCNC(=N)N)NC(=O)[C@H](CCCCN)NC(=O)[C@H](Cc1ccc(O)cc1)NC(=O)CNC(=O)[C@H](Cc1c[nH]cn1)NC(=O)[C@H](Cc1c[nH]cn1)NC(=O)[C@H](CCCNC(=N)N)NC(=O)[C@H](CCCCN)NC(=O)[C@H](C)NC(=O)[C@H](Cc1c[nH]cn1)NC(=O)[C@H](CO)NC(=O)[C@@H](N)CC(=O)O)C(=O)N[C@@H](Cc1ccc(O)cc1)C(=O)N[C@@H](CC(=O)O)C(=O)N[C@@H](CC(N)=O)C(=O)O", "note": "[Histatin 3]", "values": [{"measurement": "induction of wound closure (in words)", "setting": "[1]; synthesized peptides in SFM, vs control", "result": "induce wound closure"}]}
{"molecule": "C-HST1: cyclic peptide having the amino acid sequence according to SEQ. ID. NO. 4, Histatin 1 (DSHEKRHHGYRRKFHEKHHSHREFPFYGDYGSNYLYDN; ends and bridges not checked; also: cyclic, mode of cyclisation not given here)", "values": [{"measurement": "relative wound closure", "setting": "[1]; concentration of 1*10-3 μM, FIG. 4, 1 = no peptide added", "result": 1.5}]}
{"molecule": "EGF: epidermal growth factor, rhEGF (Invitrogen), used as a positive control", "values": [{"measurement": "induced wound closure with EGFR blocked", "setting": "[2]; AG1478 1 μM", "result": "abolished the effect"}, {"measurement": "pathway dependence of induced wound closure", "setting": "[2]; SB203580 5 μM (p38 MAPK), U0126 5 μM (ERK1/2), FIG. 2", "result": "p38^MAPK dependent"}, {"measurement": "induction of wound closure by EGF", "setting": "[1]; 5 ng/ml, FIG. 1D", "result": "able to induce wound closure with rates comparable to that of parotid saliva"}, {"measurement": "Wound closure rel. clos. ± SD", "setting": "[1]; TR146 monolayer, approx. 16 hours after wounding, closure relative to negative control, peptides tested at 1-50 μg/ml", "result": "1.41 ± 0.12"}]}
